Measurements as given in US20110098325A1, “PYRIDINE BENZAMIDES AND PYRAZINE BENZAMIDES USED AS PKD INHIBITORS” (CANCER RESEARCH TECHNOLOGY LIMITED, priority 2006, published 2011).

Target: T1, Murine PKD1 kinase domain (Mus musculus, UniProt Q62101)
T1 construct: hexahistidine (pFastBac HTb leader) (N); made in house; host or cells: Sf9 insect cells, baculovirus (Bac-to-Bac HT, pFastBac HTb)
T1 sequence (Q62101 with tags, fused parts or gaps R683W): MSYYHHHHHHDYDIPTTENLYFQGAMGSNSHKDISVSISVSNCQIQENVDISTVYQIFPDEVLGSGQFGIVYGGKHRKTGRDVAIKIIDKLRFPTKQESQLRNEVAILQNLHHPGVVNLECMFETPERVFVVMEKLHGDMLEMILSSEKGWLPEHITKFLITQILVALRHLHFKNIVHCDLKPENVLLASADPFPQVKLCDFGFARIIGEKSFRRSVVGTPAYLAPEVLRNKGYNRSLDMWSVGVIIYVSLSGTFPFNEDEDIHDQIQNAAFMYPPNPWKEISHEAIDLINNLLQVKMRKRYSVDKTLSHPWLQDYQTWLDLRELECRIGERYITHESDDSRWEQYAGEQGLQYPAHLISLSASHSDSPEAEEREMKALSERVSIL
Test: PKD1 (Murine Kinase Domain) Enzyme Activity Assay (IMAP fluorescence polarisation)
Format: biochemical
Conditions: 10 μM ATP, 60 minutes, room temperature
From the text: The DNA sequence corresponding to murine PKD1 (see FIG. 1) was inserted into pFastBAc Htb (Invitrogen, USA) at BamH1 and EcoR1 sites using standard molecular biology techniques.
The PKD1 described above was expressed as a hexahistidine tagged protein construct using a commercially available baculoviral expression system that induces protein production in insect cell culture (Bac-to-Bac® HT Baculovirus Expression System, Invitrogen). Protein was typically expressed by inoculating 1 L of sf9 cells with a genetically modified baculovirus containing the gene for the kinase domain of PKD1. Sf9 cells were obtained from ICR Ltd.
Purification of PKD1 was achieved by standard chromatographic procedures. Capture from crude centrifuged lysed cell supernatant was achieved using metal affinity chromatography (GE Healthcare Life Sciences, HiTrap Chelating chromatography column), and fractions showing PKD1 (as assessed by gel electrophoresis and western blot) were further purified by a single polish purification step performed using a mono Q anion exchange chromatography system (GE Healthcare Life Sciences, HiTrap HP Q column). […] This protocol describes the method for screening compounds as inhibitors of Protein Kinase D activity in a 384 well microplate format fluorescence polarisation IMAP assay performed using the Biomek FX.
Kinase Enzyme: Murine PKD1 kinase domain at ˜100 μg/mL, was purified from baculovirus (as described above), obtained from aliquots stored at −70° C. PKD was prepared with a final concentration of 0.1 μg/mL by diluting 1:300 in Reaction Buffer (30 μL per 9 mL-5 mL per plate with an additional 4 mL dead volume) and vortexing prior to use. It was necessary to check this concentration regularly in case of enzyme degradation.
(also known as MAPKAP K2 substrate) was obtained from Molecular Devices (Product code R7127). It was used at 300 nM by diluting 20 μM stock 1:66 in Kinase/Reaction Buffer (135 μL per 9 mL; 75 μL per 5 mL Reaction Buffer for blank wells requiring <1 mL per place with an additional 4 mL dead volume).
A 1 mM ATP stock in Reaction Buffer was prepared from a 10 mM stock in 20 mM NaOH and stored as aliquots at −70° C. It was used at 40 μM by diluting 1 mM stock 1:25 in Reaction Buffer (240 μL per 6 mL-2 mL per plate with an additional 4 mL dead volume) and vortexing prior to use.
IMAP Reagents: IMAP Binding Reagent (product code R7207) and Binding Buffer (product code R7208) were obtained from Molecular Devices and stored at +4° C. The beads were gently re-suspended before diluting by 1:400 in buffer (Binding Buffer is supplied as a 5× stock and so was diluted with water prior to use) and then vortexing before addition to wells. 16 mL water with 4 mL Binding Buffer and 50 μL Binding Reagent were used per plate (17 mL per plate with an additional 3 mL dead volume).
13 μL Substrate in Reaction Buffer was added to ‘blank’ wells to give 200 nM reaction concentration. […] 2 μL 10% DMSO/water was added to ‘blank’ and ‘control’ wells. 5 μL ATP in Reaction Buffer was added to all wells to give 10 μM reaction concentration. The reaction mixture was then incubated at room temperature for 60 minutes. The incubation period was followed by the addition of 40 μL IMAP Binding Reagent in Binding Buffer to all wells. The reaction was then further incubated at room temperature for […].
Percentage inhibition was calculated based on activity of the test sample minus the average values in the blank wells relative to the average values measured in control wells minus the average values in the blank wells.
IC50 values were calculated from 10 point dose sigmoid ‘dose-response’ curves using Xlfit software (IDBS inc, USA). Data were fitted to a 4 parameter logistic model/sigmoidal dose response:
where: A=fit minimum (locked to 0); B=fit maximum (locked to 100); C=fit midpoint (pre-fit to 1); D=slope at linear portion of curve, hillslope (pre-fit to 0.1)

IC50 [nM] | Compound
< 1000 | CN(C)CCNC(=O)c1cccc(-c2cnc(N)c(-c3ccc(Oc4ccccc4)cc3)c2)c1 [Y-067, 3-[6-Amino-5-(4-phenoxy-phenyl)-pyridin-3-yl]-N-(2-dimethylamino-ethyl)-benzamide]
< 1000 | CN(C)CCNC(=O)c1cccc(-c2cnc(N)c(-c3ccc(O)c(F)c3)c2)c1 [Y-042, 3-[6-Amino-5-(3-fluoro-4-hydroxy-phenyl)-pyridin-3-yl]-N-(2-dimethylamino-ethyl)-benzamide]
< 1000 | COc1cc(-c2cc(-c3cccc(C(N)=O)c3)cnc2N)ccc1F [Y-055, 3-[6-Amino-5-(4-fluoro-3-methoxy-phenyl)-pyridin-3-yl]-benzamide]
< 1000 | COc1cccc(-c2cc(-c3cccc(C(=O)NCCN(C)C)c3)cnc2N)n1 [Y-083, 3-(2′-Amino-6-methoxy-[2,3′]bipyridinyl-5′-yl)-N-(2-dimethylamino-ethyl)-benzamide]
< 1000 | CN(C)CCNC(=O)c1cccc(-c2cnc(N)c(-c3ccc(O)cc3)c2)c1 [Y-079, 3-[6-Amino-5-(4-hydroxy-phenyl)-pyridin-3-yl]-N-(2-dimethylamino-ethyl)-benzamide]
< 1000 | CCN(CC)CCNC(=O)c1cccc(-c2cncc(-c3ccc(O)c(OC)c3)n2)c1 [X-022, N-(2-Diethylamino-ethyl)-3-[6-(4-hydroxy-3-methoxy-phenyl)-pyrazin-2-yl]-benzamide]
< 1000 | CN(C)CCNC(=O)c1cccc(-c2cnc(N)c(-c3cccc(Cl)c3)c2)c1 [Y-040, 3-[6-Amino-5-(3-chloro-phenyl)-pyridin-3-yl]-N-(2-dimethylamino-ethyl)-benzamide]
< 1000 | CN(C)CCNC(=O)c1cccc(-c2cnc(N)c(-c3ccc(C(F)(F)F)cc3)c2)c1 [Y-069, 3-[6-Amino-5-(4-trifluoromethyl-phenyl)-pyridin-3-yl]-N-(2-dimethylamino-ethyl)-benzamide]
< 1000 | CN(C)CCNC(=O)c1cccc(-c2cnc(N)c(-c3ccc4cc(O)ccc4c3)c2)c1 [Y-082, 3-[6-Amino-5-(6-hydroxy-naphthalen-2-yl)-pyridin-3-yl]-N-(2-dimethylamino-ethyl)-benzamide]
< 1000 | CSc1nccc(-c2cc(-c3cccc(C(=O)NCCN(C)C)c3)cnc2N)n1 [Y-086, 3-[6-Amino-5-(2-methylsulfanyl-pyrimidin-4-yl)-pyridin-3-yl]-N-(2-dimethylamino-ethyl)-benzamide]
< 1000 | CN(C)CCNC(=O)c1cccc(-c2cnc(N)c(-c3ccc(-c4ccccc4)c(F)c3)c2)c1 [Y-031, 3-[6-Amino-5-(2-fluoro-biphenyl-4-yl)-pyridin-3-yl]-N-(2-dimethylamino-ethyl)-benzamide]
< 1000 | CN(C)CCNC(=O)c1cccc(-c2cnc(N)c(-c3ccc(F)c(C(F)(F)F)c3)c2)c1 [Y-057, 3-[6-Amino-5-(4-fluoro-3-trifluoromethyl-phenyl)-pyridin-3-yl]-N-(2-dimethylamino-ethyl)-benzamide]
< 1000 | CN(C)CCNC(=O)c1cccc(-c2cnc(N)c(-c3ccc4cc(O)ccc4c3)n2)c1 [X-023, 3-[5-Amino-6-(6-hydroxy-naphthalen-2-yl)-pyrazin-2-yl]-N-(2-dimethylamino-ethyl)-benzamide]
< 1000 | COc1cccc(-c2nc(-c3cccc(C(=O)NCCN(C)C)c3)cnc2N)c1 [X-026, 3-[5-Amino-6-(3-methoxy-phenyl)-pyrazin-2-yl]-N-(2-dimethylamino-ethyl)-benzamide]
< 1000 | CN(C)CCNC(=O)c1cccc(-c2cnc(N)c(-c3cnc4ccccc4c3)c2)c1 [Y-090, 3-(6-Amino-5-quinolin-3-yl-pyridin-3-yl)-N-(2-dimethylamino-ethyl)-benzamide]
< 1000 | CN(C)CCNC(=O)c1cccc(-c2cnc(N)c(-c3ccc4[nH]ncc4c3)c2)c1 [Y-094, 3-[6-Amino-5-(1H-indazol-5-yl)-pyridin-3-yl]-N-(2-dimethylamino-ethyl)-benzamide]
< 1000 | CN(C)CCNC(=O)c1cccc(-c2cnc(N)c(-c3cccc4cccnc34)c2)c1 [Y-023, 3-(6-Amino-5-quinolin-8-yl-pyridin-3-yl)-N-(2-dimethylamino-ethyl)-benzamide]
< 1000 | COc1cc(-c2cncc(-c3cccc(C(=O)NC4CCN(C)CC4)c3)n2)ccc1O [X-019, 3-[6-(4-Hydroxy-3-methoxy-phenyl)-pyrazin-2-yl]-N-(1-methyl-piperidin-4-yl)-benzamide]
< 1000 | CN(C)CCNC(=O)c1cccc(-c2cnc(N)c(-c3ccc4ccccc4c3)c2)c1 [Y-020, 3-(6-Amino-5-naphthalen-2-yl-pyridin-3-yl)-N-(2-dimethylamino-ethyl)-benzamide]
< 1000 | COc1cccc(-c2cc(-c3cccc(C(=O)NC(C)CN(C)C)c3)cnc2N)c1 (centres unmarked) [Y-092, 3-[6-Amino-5-(3-methoxy-phenyl)-pyridin-3-yl]-N-(2-dimethylamino-1-methyl-ethyl)-benzamide]
< 1000 | COc1cc(-c2cc(-c3cccc(C(N)=O)c3)cnc2N)ccc1O [Y-001, 3-[6-Amino-5-(4-hydroxy-3-methoxy-phenyl)-pyridin-3-yl]-benzamide]
< 1000 | CN(C)CCNC(=O)c1cccc(-c2cnc(N)c(-c3ccc(-c4ccccc4)cc3)c2)c1 [Y-014, 3-(6-Amino-5-biphenyl-4-yl-pyridin-3-yl)-N-(2-dimethylamino-ethyl)-benzamide]
< 1000 | CN(C)CCNC(=O)c1cccc(-c2cncc(-c3cccc4c3oc3ccccc34)n2)c1 [X-013, 3-(6-Dibenzofuran-4-yl-pyrazin-2-yl)-N-(2-dimethylamino-ethyl)-benzamide]
1000 to 10000 | COc1ccccc1-c1cc(-c2cccc(C(N)=O)c2)cnc1N [Y-002, 3-[6-Amino-5-(2-methoxy-phenyl)-pyridin-3-yl] benzamide]
< 1000 | COc1cc(-c2cc(-c3cccc(C(=O)NCCN(C)C)c3)cnc2N)ccc1F [Y-056, 3-[6-Amino-5-(4-fluoro-3-methoxy-phenyl)-pyridin-3-yl]-N-(2-dimethylamino-ethyl)-benzamide]
< 1000 | CN(C)CCNC(=O)c1cccc(-c2cnc(N)c(-c3cc4ccccc4o3)c2)c1 [Y-012, 3-(6-Amino-5-benzofuran-2-yl-pyridin-3-yl)-N-(2-dimethylamino-ethyl)-benzamide]
< 1000 | CN(C)CCNC(=O)c1cccc(-c2cnc(N)c(-c3cccc(C#N)c3)c2)c1 [Y-041, 3-[6-Amino-5-(3-cyano-phenyl)-pyridin-3-yl]-N-(2-dimethylamino-ethyl)-benzamide]
1000 to 10000 | CC(C)Oc1cccc(-c2cc(-c3cccc(C(=O)NCCN(C)C)c3)cnc2N)c1 [Y-046, 3-[6-Amino-5-(3-isopropoxy-phenyl)-pyridin-3-yl]-N-(2-dimethylamino-ethyl)-benzamide]
1000 to 10000 | COc1ccccc1-c1nc(-c2cccc(C(=O)NCCN(C)C)c2)cnc1N [X-015, 3-[5-Amino-6-(2-methoxy-phenyl)-pyrazin-2-yl]-N-(2-dimethylamino-ethyl)-benzamide]
